Experimental data as given in ChEMBL document CHEMBL1146198, “In vitro studies with DQ-113 and comparison fluoroquinolones to determine propensities to select resistance in gram-positive cocci” (2007).
In brackets after ≈: the same amount, converted by molar mass.

Key:
Format in all cases: functional
[1] = test system: Streptococcus pneumoniae; assay: Effect on 2 ug/ml moxifloxacin-selected penicillin-resistant Streptococcus pneumoniae 218 mutant after five passages assessed as susceptibility by agar dilution method
[2] = test system: Staphylococcus aureus; assay: Susceptibility of methicillin-sensitive/resistant Staphylococcus aureus single-step mutant by agar dilution method
[3] = test system: Streptococcus pneumoniae; assay: Susceptibility of penicillin-resistant Streptococcus pneumoniae 335 by agar dilution method
[4] = test system: Streptococcus pneumoniae; assay: Effect on 0.06 ug/ml DQ113-selected penicillin-resistant Streptococcus pneumoniae 335 mutant after five passages assessed as susceptibility by agar dilution method
[5] = test system: Streptococcus pneumoniae; assay: Effect on 0.5 ug/ml […]-selected penicillin-resistant Streptococcus pneumoniae 335 mutant after five passages assessed as susceptibility by agar dilution method
[6] = test system: Streptococcus pneumoniae; assay: Effect on 1 ug/ml moxifloxacin-selected penicillin-resistant Streptococcus pneumoniae 335 mutant after five passages assessed as susceptibility by agar dilution method
[7] = test system: Streptococcus pneumoniae; assay: Effect on 0.06 ug/ml DQ113-selected penicillin-resistant Streptococcus pneumoniae 334 mutant after five passages assessed as susceptibility by agar dilution method
[8] = test system: Streptococcus pneumoniae; assay: Effect on 8 ug/ml ciprofloxacin-selected penicillin-resistant Streptococcus pneumoniae 216 mutant after five passages assessed as susceptibility by agar dilution method
[9] = test system: Streptococcus pneumoniae; assay: Susceptibility of penicillin-resistant Streptococcus pneumoniae 218 by agar dilution method
[10] = test system: Streptococcus pneumoniae; assay: Effect on 0.06 ug/ml DQ113-selected penicillin-resistant Streptococcus pneumoniae 218 mutant after five passages assessed as susceptibility by agar dilution method
[11] = test system: Streptococcus pneumoniae; assay: Effect on 0.5 ug/ml sitafloxacin-selected penicillin-resistant Streptococcus pneumoniae 218 mutant after five passages assessed as susceptibility by agar dilution method
[12] = test system: Streptococcus pneumoniae; assay: Effect on 16 ug/ml levofloxacin-selected penicillin-resistant Streptococcus pneumoniae 218 mutant after five passages assessed as susceptibility by agar dilution method
[13] = test system: Streptococcus pneumoniae; assay: Effect on 16 ug/ml ciprofloxacin-selected penicillin-resistant Streptococcus pneumoniae 218 mutant after five passages assessed as susceptibility by agar dilution method
[14] = test system: Enterococcus; assay: Susceptibility of vancomycin-resistant Enterococcus species single-step mutant by agar dilution method
[15] = test system: Enterococcus; assay: Susceptibility of drug-selected vancomycin-resistant Enterococcus species mutant by agar dilution method
[16] = test system: Streptococcus pneumoniae; assay: Effect on 16 ug/ml levofloxacin-selected penicillin-resistant Streptococcus pneumoniae 335 mutant after five passages assessed as susceptibility by agar dilution method
[17] = test system: Streptococcus pneumoniae; assay: Effect on 16 ug/ml ciprofloxacin-selected penicillin-resistant Streptococcus pneumoniae 335 mutant after five passages assessed as susceptibility by agar dilution method
[18] = test system: Streptococcus pneumoniae; assay: Susceptibility of penicillin-resistant Streptococcus pneumoniae 334 by agar dilution method
[19] = test system: Streptococcus pneumoniae; assay: Effect on 0.5 ug/ml sitafloxacin-selected penicillin-resistant Streptococcus pneumoniae 334 mutant after five passages assessed as susceptibility by agar dilution method
[20] = test system: Streptococcus pneumoniae; assay: Effect on 1 ug/ml moxifloxacin-selected penicillin-resistant Streptococcus pneumoniae 334 mutant after five passages assessed as susceptibility by agar dilution method
[21] = test system: Streptococcus pneumoniae; assay: Effect on 4 ug/ml levofloxacin-selected penicillin-resistant Streptococcus pneumoniae 334 mutant after five passages assessed as susceptibility by agar dilution method
[22] = test system: Streptococcus pneumoniae; assay: Effect on 32 ug/ml ciprofloxacin-selected penicillin-resistant Streptococcus pneumoniae 334 mutant after five passages assessed as susceptibility by agar dilution method
[23] = test system: Streptococcus pneumoniae; assay: Susceptibility of penicillin-resistant Streptococcus pneumoniae 216 by agar dilution method
[24] = test system: Streptococcus pneumoniae; assay: Effect on 0.06 ug/ml DQ113-selected penicillin-resistant Streptococcus pneumoniae 216 mutant after five passages assessed as susceptibility by agar dilution method
[25] = test system: Streptococcus pneumoniae; assay: (§1) Effect on 0.5 ug/ml sitafloxacin-selected penicillin-resistant Streptococcus pneumoniae 216 mutant after five passages assessed as susceptibility by agar dilution method
[26] = test system: Streptococcus pneumoniae; assay: Effect on 2 ug/ml moxifloxacin-selected penicillin-resistant Streptococcus pneumoniae 216 mutant after five passages assessed as susceptibility by agar dilution method
[27] = test system: Streptococcus pneumoniae; assay: (§2) Effect on 4 ug/ml levofloxacin-selected penicillin-resistant Streptococcus pneumoniae 216 mutant after five passages assessed as susceptibility by agar dilution method
[28] = test system: Streptococcus pneumoniae; assay: Effect on 32 ug/ml ciprofloxacin-selected penicillin-resistant Streptococcus pneumoniae 216 mutant after five passages assessed as susceptibility by agar dilution method
[29] = test system: Streptococcus pneumoniae; assay: Susceptibility of penicillin-resistant Streptococcus pneumoniae 217 by agar dilution method
[30] = test system: Streptococcus pneumoniae; assay: Effect on 0.03 ug/ml DQ113-selected penicillin-resistant Streptococcus pneumoniae 216 mutant after five passages assessed as susceptibility by agar dilution method
[31] = test system: Streptococcus pneumoniae; assay: as §1; remark: listed apart in the source
[32] = test system: Streptococcus pneumoniae; assay: Effect on 0.5 ug/ml moxifloxacin-selected penicillin-resistant Streptococcus pneumoniae 216 mutant after five passages assessed as susceptibility by agar dilution method
[33] = test system: Streptococcus pneumoniae; assay: as §2; remark: listed apart in the source

Row | SMILES | MIC [1] [µg/mL] | MIC [2] [µg/mL] | MIC [3] [µg/mL] | MIC [4] [µg/mL] | MIC [5] [µg/mL] | MIC [6] [µg/mL] | MIC [7] [µg/mL] | MIC [8] [µg/mL] | MIC [9] [µg/mL] | MIC [10] [µg/mL] | MIC [11] [µg/mL] | MIC [12] [µg/mL] | MIC [13] [µg/mL] | MIC [14] [µg/mL] | MIC [16] [µg/mL] | MIC [17] [µg/mL] | MIC [18] [µg/mL] | MIC [19] [µg/mL] | MIC [20] [µg/mL] | MIC [26] [µg/mL] | other results
1 | Cc1c(N2C[C@@H](F)[C@@H](C3(N)CC3)C2)c(F)c(N)c2c(=O)c(C(=O)O)cn([C@@H]3C[C@@H]3F)c12 [DQ-113] | 0.03 | 0.03 (≈ 0.0687 µM) | 0.002 (≈ 0.00458 µM) | 0.015 (≈ 0.0344 µM) | 0.03 | 0.03 | 0.06 (≈ 0.137 µM) | 0.015 | 0.004 (≈ 0.00917 µM) | 0.03 (≈ 0.0687 µM) | 0.015 | 0.015 | 0.06 | 2 (≈ 4.58 µM) | 0.12 | 0.007 | 0.004 (≈ 0.00917 µM) | 0.06 | 0.015 | 0.12 | MIC ([15]; read-out: MIC): 8 µg/mL (≈ 18.3 µM); MIC [21]: 0.03 µg/mL; MIC [22]: 0.03 µg/mL; MIC [23]: 0.001 µg/mL (≈ 0.00229 µM); MIC [24]: 0.06 µg/mL (≈ 0.137 µM); MIC [25]: 0.03 µg/mL; MIC [27]: 0.007 µg/mL; MIC [28]: 0.015 µg/mL; MIC [29]: 0.004 µg/mL (≈ 0.00917 µM); MIC [30]: 0.007 µg/mL (≈ 0.016 µM); MIC [31]: 0.03 µg/mL; MIC [32]: 0.015 µg/mL; MIC [33]: 0.002 µg/mL
2 | C[C@H]1COc2c(N3CCN(C)CC3)c(F)cc3c(=O)c(C(=O)O)cn1c23.C[C@H]1COc2c(N3CCN(C)CC3)c(F)cc3c(=O)c(C(=O)O)cn1c23.O [LEVOFLOXACIN] | – | 2 | – | – | – | – | – | – | – | – | – | – | – | 16 | 64 | – | – | – | – | 64 | MIC ([15]; read-out: MIC): 256 µg/mL
3 | O=C(O)c1cn(C2CC2)c2cc(N3CCNCC3)c(F)cc2c1=O [CIPROFLOXACIN] | 128 | – | 1 (≈ 3.02 µM) | 4 (≈ 12.1 µM) | 16 | 4 | 8 (≈ 24.1 µM) | 32 | 1 (≈ 3.02 µM) | 8 (≈ 24.1 µM) | 16 | 8 | 128 | 16 (≈ 48.3 µM) | 128 | 16 | 1 (≈ 3.02 µM) | 64 | 8 | 128 | MIC [21]: 32 µg/mL; MIC [22]: 32 µg/mL; MIC [24]: 16 µg/mL (≈ 48.3 µM); MIC [25]: 32 µg/mL; MIC [27]: 16 µg/mL; MIC [28]: 32 µg/mL; MIC [29]: 1 µg/mL (≈ 3.02 µM); MIC [30]: 4 µg/mL (≈ 12.1 µM); MIC [31]: 32 µg/mL; MIC [32]: 4 µg/mL; MIC [33]: 4 µg/mL
4 | COc1c(N2C[C@@H]3CCCN[C@@H]3C2)c(F)cc2c(=O)c(C(=O)O)cn(C3CC3)c12 [MOXIFLOXACIN] | 4 | 0.5 (≈ 1.25 µM) | 0.12 (≈ 0.299 µM) | 1 (≈ 2.49 µM) | 1 | 2 | 2 (≈ 4.98 µM) | 2 | 0.12 (≈ 0.299 µM) | 1 (≈ 2.49 µM) | 1 | 1 | 4 | 8 (≈ 19.9 µM) | 8 | 0.5 | 0.12 (≈ 0.299 µM) | 4 | 0.5 | 8 | MIC [15]: 64 µg/mL (≈ 159 µM); MIC [21]: 2 µg/mL; MIC [22]: 1 µg/mL; MIC [23]: 0.06 µg/mL (≈ 0.149 µM); MIC [24]: 2 µg/mL (≈ 4.98 µM); MIC [25]: 2 µg/mL; MIC [27]: 0.25 µg/mL; MIC [28]: 0.5 µg/mL; MIC [29]: 0.25 µg/mL (≈ 0.623 µM); MIC [30]: 0.25 µg/mL (≈ 0.623 µM); MIC [31]: 2 µg/mL; MIC [32]: 1 µg/mL; MIC [33]: 0.25 µg/mL
5 | N[C@@H]1CN(c2c(F)cc3c(=O)c(C(=O)O)cn(C4C[C@@H]4F)c3c2Cl)CC12CC2 (single isomer, unassigned) [SITAFLOXACIN ANHYDROUS] | 1 | 0.25 (≈ 0.61 µM) | 0.12 (≈ 0.293 µM) | 0.5 (≈ 1.22 µM) | 2 | 0.5 | 0.5 (≈ 1.22 µM) | 0.5 | 0.12 (≈ 0.293 µM) | 1 (≈ 2.44 µM) | 1 | 0.5 | 2 | 4 (≈ 9.76 µM) | 4 | 0.5 | 0.06 (≈ 0.146 µM) | 0.5 | 0.12 | 4 | MIC ([15]; read-out: MIC): 8 µg/mL (≈ 19.5 µM); MIC [21]: 0.5 µg/mL; MIC [22]: 0.5 µg/mL; MIC [23]: 0.06 µg/mL (≈ 0.146 µM); MIC [24]: 0.5 µg/mL (≈ 1.22 µM); MIC [25]: 2 µg/mL; MIC [27]: 0.5 µg/mL; MIC [28]: 1 µg/mL; MIC [29]: 0.12 µg/mL (≈ 0.293 µM); MIC [30]: 0.25 µg/mL (≈ 0.61 µM); MIC [31]: 1 µg/mL; MIC [32]: 0.5 µg/mL; MIC [33]: 0.12 µg/mL
